These results are taken from ChEMBL document CHEMBL1140718, “Fragment-based discovery of mexiletine derivatives as orally bioavailable inhibitors of urokinase-type plasminogen activator” (J Med Chem, 2008).

Data set [1] has as its target Urokinase-type plasminogen activator (Homo sapiens, UniProt P00749).
Data set [2] can be described thus: Clearance in rat at 0.95 mg/kg, iv. The format is ADME, organism-based. Also noted: dose 0.95 mg/kg, route intravenous. The conditions noted are these: in vivo.
The nature of data set [3]: Volume of distribution in rat at 0.95 mg/kg, iv. It is filed as ADME, organism-based. Also noted: dose 0.95 mg/kg, route intravenous. The conditions noted are these: in vivo.
The nature of data set [4]: Half life in rat at 0.95 mg/kg, iv. The format is ADME, organism-based. Also noted: dose 0.95 mg/kg, route intravenous. The conditions noted are these: in vivo.
The nature of data set [5]: Oral bioavailability in rat at 4.2 mg/kg. The format is ADME, organism-based. The conditions noted are these: in vivo.
Data set [6] can be described thus: Dissociation constant, pKa of the compound. The format is physicochemical.

Take `N=C(N)c1ccc(CNC(=O)[C@H](CO)NC(=O)[C@@H](CO)NS(=O)(=O)Cc2ccccc2)cc1`: half-maximal inhibition in data set [1] (IC50) was put at 20 nM.
Still for that read-out and setting: the figure for `NCCOc1c(Cl)cc(C(=O)Nc2ccccc2)cc1Cl` is 35000 nM.
In turn, `Cc1cc(C(=O)Nc2cccc(OC(C)C)c2)cc(C)c1OCCN` gave an IC50 in data set [1] of 2700 nM.
In turn, `Cc1cc(C(=O)Nc2cc(OC(C)C)cc(OC(C)C)c2)cc(C)c1OCCN` gave an IC50 in data set [1] of 72 nM.
On the same count and under the same terms, the result for `CCOC(=O)N1CCN(C(=O)[C@H](Cc2cccc(C(=N)N)c2)NS(=O)(=O)c2c(C(C)C)cc(C(C)C)cc2C(C)C)CC1` reads 410 nM.
`Cc1cc(C(=O)Nc2cc(F)cc(N3CCOCC3)c2)cc(C)c1OCCN`: the IC50 in data set [1] came to 1600 nM.
For the molecule `CCOc1c(Cl)cc(N2CCCCC2)cc1NC(=O)c1cc(C)c(OC[C@@H](C)N)c(C)c1`, in data set [1], the IC50 came to 460 nM.
Turning to `NC(N)=Nc1ncc(Cl)c2ccc(-c3cccc(C(=O)O)c3)cc12`, the IC50 in data set [1] was found to be 37 nM.
`CCOc1c(Cl)cc(N2CCCCC2)cc1NC(=O)c1cc(C)c(OCCN)c(C)c1`: the clearance in data set [2] is 43 mL/min/kg. The Vd in data set [3] was found to be 27 L/kg. Besides, the half-life in data set [4] was 7.5 h. Moreover, in data set [5], the bioavailability was 60%. In data set [6], this molecule showed a pKa of 8.75.
In data set [1], `COc1ccccc1NC(=O)c1cc(Cl)c(OCCN)c(Cl)c1` yielded a half-inhibitory concentration (IC50) of 23000 nM.

As usually defined, the IC50 is the concentration that gives 50% inhibition. A higher IC50 goes with a need for much substance. The clearance is the rate of elimination divided by the concentration. A lower clearance goes with inefficient removal. As usually defined, the Vd is the apparent volume that relates the amount in the body to the concentration in plasma or blood. Higher therefore signals extensive tissue distribution. As usually defined, the half-life is the time needed for the level to fall by half in the phase considered. High values mean slow loss, low ones fast loss. What is called bioavailability is dose-corrected exposure relative to a reference, in per cent. One may read the pKa as the pH at which an ionisable group is half protonated.
